Broadly, the IC50 is the concentration needed to halve the response being measured.

Converted amounts (≈) assume the structure as drawn.

This passage reports IC50 results from ChEMBL document CHEMBL1125971, “A concise synthesis of 12-(3'-hydroxy-n-propyl)-deoxoartemisinin” (Bioorg Med Chem Lett, 1991).

For the experiment, the system named is Plasmodium falciparum. Nature of the experiment: In vitro antimalarial activity against Plasmodium falciparum. The format is functional, organism-based.
Regarding `C[C@@H]1CCC2[C@@H](C)C(=O)O[C@@H]3O[C@]4(C)CCC1C23OO4` (some centres undefined), the IC50 stood at 1.21 ng/mL (≈ 4.29 nM). Take `C[C@@H]1CCC2[C@@H](C)CO[C@@H]3O[C@]4(C)CCC1C23OO4` (some centres undefined): it took 0.15 ng/mL (≈ 0.559 nM) to reach half-maximal inhibition (IC50). Turning to `C[C@@H]1CCC2[C@@H](C)CCO[C@@H]3O[C@]4(C)CCC1C23OO4` (some centres undefined), the IC50 is 19 ng/mL (≈ 67.4 nM).

For `C[C@@H]1CCC2[C@@H](C)[C@H](CCCO)O[C@@H]3O[C@]4(C)CCC1C23OO4` (some centres undefined), the IC50 was determined as 0.23 ng/mL (≈ 0.705 nM).
